From US7138361B2, “Herbicidal heterocycles” (E. I. du Pont de Nemours and Company, priority 2000, dated 2006)

Key:
Format in all cases: in vivo
[1] = tested on: common ragweed (Ambrosia elatior); assay: Test C preemergence
Method in brief: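 Visual 0–100 rating vs controls (0 = no effect, 100 = complete control) at 12–14 d, greenhouse. Compounds in non-phytotoxic solvent + surfactant; pre: sprayed after seeding; post: 1–4-leaf plants, 2–18 cm.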

[2] = tested on: giant foxtail (Setaria faberii); assay: Test C postemergence
Text: (§1) Seeds of plant species selected from bermudagrass (Cynodon dactylon), Surinam grass (Brachiaria decumbens), cocklebur (Xanthium strumarium), corn (Zea mays), crabgrass (Digitaria sanguinalis), woolly cupgrass (Eriochloa villosa), giant foxtail (Setaria faberii), goosegrass (Eleusine indica), johnsongrass (Sorghum halepense), kochia (Kochia scoparia), lambsquarters (Chenopodium album), morningglory (Ipomoea hederacea), yellow nutsedge (Cyperus esculentus), pigweed (Amaranthus retroflexus), common ragweed (Ambrosia elatior), soybean (Glycine max) and velvetleaf (Abutilon theophrasti) were planted and treated preemergence with test chemicals formulated in a non-phytotoxic solvent mixture which included a surfactant.
(§2) At the same time, plants selected from these crop and weed species and also winter barley (Hordeum vulgare), blackgrass (Alopecurus myosuroides), canary grass (Phalaris minor), chickweed (Stellaria media), downy brome (Bromus tectorum), green foxtail (Setaria viridis), Italian ryegrass (Lolium multiflorum), wheat (Triticum aestivum), wild oat (Avena fatua) and windgrass (Apera spica-venti) were treated with postemergence applications of some of the test chemicals formulated in the same manner. Plants ranged in height from 2 to 18 cm (1- to 4-leaf stage) for postemergence treatments. Plant species in the flooded paddy test consisted of rice (Oryza saliva), smallflower flatsedge (Cyperus difformis), duck salad (Heteranthera limosa) and barnyardgrass (Echinochloa crus-galli) grown to the 2-leaf stage for testing. Treated plants and controls were maintained in a greenhouse for 12 to 14 days, after which time all species were compared to controls and visually evaluated. Plant response ratings, summarized in Table C, are based on a scale of 0 to 100 where 0 is no effect and 100 is complete control. A dash (-) response means no test result.

kochia (Kochia scoparia) = assay: Test C postemergence
Text: as §1, §2

[3] = tested on: lambsquarters (Chenopodium album); assay: Test C postemergence
Text: as §1, §2

[4] = tested on: velvetleaf (Abutilon theophrasti); assay: Test C postemergence
Text: as §1, §2

[5] = tested on: bermudagrass (Cynodon dactylon); assay: Test C postemergence
Text: as §1, §2

[6] = tested on: yellow nutsedge (Cyperus esculentus); assay: Test C postemergence
Text: as §1, §2

[7] = tested on: goosegrass (Eleusine indica); assay: Test C postemergence
Text: as §1, §2

corn (Zea mays) = assay: Test C postemergence
Text: as §1, §2

[8] = tested on: pigweed (Amaranthus retroflexus); assay: Test C postemergence
Text: as §1, §2

[9] = tested on: johnsongrass (Sorghum halepense); assay: Test C postemergence
Text: as §1, §2

soybean (Glycine max) = assay: Test C postemergence
Text: as §1, §2

[10] = tested on: crabgrass (Digitaria sanguinalis); assay: Test C postemergence
Text: as §1, §2

[11] = tested on: Surinam grass (Brachiaria decumbens); assay: Test C postemergence
Text: as §1, §2

[12] = tested on: cocklebur (Xanthium strumarium); assay: Test C postemergence
Text: as §1, §2

Sunflower = assay: Test C preemergence; details: Rate 62 g/ha, scale 0 to 100
[13] = tested on: chickweed (Stellaria media); assay: Test C postemergence
Text: as §1, §2

[14] = tested on: common ragweed (Ambrosia elatior); assay: Test C postemergence
Text: as §1, §2

[15] = Rate 125 g/ha, scale 0 to 100, 0 no effect, 100 complete control
[16] = Rate 250 g/ha, scale 0 to 100 (0 no effect, 100 complete control)
[17] = Rate 500 g/ha, scale 0 to 100 (0 no effect, 100 complete control)

Cc1ccc(N2CCC(n3ccc(C(C)(C)C)n3)C2=O)cc1I (centres unmarked) [Compound 122]
0: Plant response rating, Ragweed, Common [1, 15] | Plant response rating, Ragweed, Common ([1]; preemergence, Rate 62 g/ha, scale 0 to 100) | Plant response rating, Foxtail, Giant ([2]; Rate 62 g/ha, scale 0 to 100) | Plant response rating, Foxtail, Giant [2, 16] | Plant response rating, Velvetleaf ([4]; Rate 62 g/ha, scale 0 to 100) | Plant response rating, Velvetleaf [4, 16] | Plant response rating, Velvetleaf ([4]; scale 0 to 100) | Plant response rating, Bermudagrass ([5]; Rate 62 g/ha, scale 0 to 100) | Plant response rating, Bermudagrass [5, 15] | Plant response rating, Bermudagrass [5, 16] | Plant response rating, Bermudagrass [5, 17] | Plant response rating, Nutsedge ([6]; Rate 62 g/ha, scale 0 to 100) | Plant response rating, Nutsedge [6, 16] | Plant response rating, Nutsedge [6, 17] | Plant response rating, Goosegrass ([7]; Rate 62 g/ha, scale 0 to 100) | Plant response rating, Goosegrass [7, 16] | Plant response rating, Goosegrass [7, 17] | Plant response rating, Corn (corn (Zea mays); Rate 62 g/ha, scale 0 to 100) | Plant response rating, Corn (corn (Zea mays); [16]) | Plant response rating, Corn (corn (Zea mays); [17]) | Plant response rating, Corn (corn (Zea mays); scale 0 to 100) | Plant response rating, Johnsongrass ([9]; Rate 62 g/ha, scale 0 to 100) | Plant response rating, Johnsongrass [9, 16] | Plant response rating, Johnsongrass [9, 17] | Plant response rating, Johnsongrass ([9]; rate not given, scale 0 to 100) | Plant response rating, Crabgrass ([10]; Rate 62 g/ha, scale 0 to 100) | Plant response rating, Crabgrass [10, 16] | Plant response rating, Crabgrass [10, 17] | Plant response rating, Surinam grass ([11]; Rate 62 g/ha, scale 0 to 100) | Plant response rating, Surinam grass [11, 15] | Plant response rating, Surinam grass [11, 16] | Plant response rating, Surinam grass [11, 17] | Plant response rating, Sunflower (Sunflower)
70: Plant response rating, Cocklebur [12, 17]
50: Plant response rating, Soybean (soybean (Glycine max); [16])
20: Plant response rating, Ragweed, Common ([1]; preemergence, Rate 250 g/ha, scale 0 to 100, 0 no effect, 100 complete control) | Plant response rating, Velvetleaf [4, 17] | Plant response rating, Cocklebur ([12]; Rate 62 g/ha, scale 0 to 100)
60: Plant response rating, Soybean (soybean (Glycine max); [17])
40: Plant response rating, Foxtail, Giant [2, 17] | Plant response rating, Pigweed ([8]; Rate 62 g/ha, scale 0 to 100) | Plant response rating, Soybean (soybean (Glycine max); Rate 62 g/ha, scale 0 to 100) | Plant response rating, Cocklebur [12, 16]
90: Plant response rating, Kochia (kochia (Kochia scoparia); Rate 62 g/ha, scale 0 to 100)
100: Plant response rating (0 to 100), Ragweed, Common ([1]; preemergence, Rate 500 g/ha, visual evaluation after 12 to 14 days) | Plant response rating, Kochia (kochia (Kochia scoparia); [16]) | Plant response rating, Kochia (kochia (Kochia scoparia); [17]) | Plant response rating, Lambsquarters ([3]; Rate 62 g/ha, scale 0 to 100) | Plant response rating, Lambsquarters [3, 16] | Plant response rating, Lambsquarters [3, 17] | Plant response rating, Pigweed [8, 16] | Plant response rating, Pigweed [8, 17]

CCC(CC)c1ccn(C2OCN(c3cccc(OC(F)(F)F)c3)C2=O)n1 (centres unmarked) [Compound 68]
30: Plant response rating, Chickweed ([13]; Rate 62 g/ha, scale 0 to 100) | Plant response rating, Velvetleaf [4, 17] | Plant response rating, Ragweed, Common [14, 17]
40: Plant response rating, Chickweed [13, 15] | Plant response rating, Bermudagrass [5, 17]
70: Plant response rating, Kochia (kochia (Kochia scoparia); [15]) | Plant response rating, Kochia (kochia (Kochia scoparia); [16]) | Plant response rating, Kochia (kochia (Kochia scoparia); [17]) | Plant response rating, Chickweed [13, 16] | Plant response rating, Pigweed [8, 15] | Plant response rating, Pigweed [8, 16]
0: Plant response rating, Foxtail, Giant ([2]; Rate 62 g/ha, scale 0 to 100) | Plant response rating, Foxtail, Giant [2, 15] | Plant response rating, Foxtail, Giant [2, 16] | Plant response rating, Foxtail, Giant [2, 17] | Plant response rating, Velvetleaf ([4]; Rate 62 g/ha, scale 0 to 100) | Plant response rating, Velvetleaf [4, 15] | Plant response rating, Velvetleaf [4, 16] | Plant response rating, Bermudagrass ([5]; Rate 62 g/ha, scale 0 to 100) | Plant response rating, Bermudagrass [5, 15] | Plant response rating, Nutsedge ([6]; Rate 62 g/ha, scale 0 to 100) | Plant response rating, Nutsedge [6, 15] | Plant response rating, Nutsedge [6, 16] | Plant response rating, Nutsedge [6, 17] | Plant response rating, Goosegrass ([7]; Rate 62 g/ha, scale 0 to 100) | Plant response rating, Goosegrass [7, 15] | Plant response rating, Goosegrass [7, 16] | Plant response rating, Goosegrass [7, 17] | Plant response rating, Corn (corn (Zea mays); Rate 62 g/ha, scale 0 to 100) | Plant response rating, Corn (corn (Zea mays); [15]) | Plant response rating, Corn (corn (Zea mays); [16]) | Plant response rating, Corn (corn (Zea mays); [17]) | Plant response rating, Johnsongrass ([9]; Rate 62 g/ha, scale 0 to 100) | Plant response rating, Johnsongrass [9, 15] | Plant response rating, Johnsongrass [9, 16] | Plant response rating, Ragweed, Common ([14]; Rate 62 g/ha, scale 0 to 100) | Plant response rating, Ragweed, Common [14, 15] | Plant response rating, Ragweed, Common [14, 16] | Plant response rating, Soybean (soybean (Glycine max); Rate 62 g/ha, scale 0 to 100) | Plant response rating, Soybean (soybean (Glycine max); [15]) | Plant response rating, Soybean (soybean (Glycine max); [16]) | Plant response rating, Crabgrass ([10]; Rate 62 g/ha, scale 0 to 100) | Plant response rating, Crabgrass [10, 15] | Plant response rating, Crabgrass [10, 16] | Plant response rating, Surinam grass ([11]; Rate 62 g/ha, scale 0 to 100) | Plant response rating, Surinam grass [11, 15] | Plant response rating, Surinam grass [11, 16] | Plant response rating, Surinam grass [11, 17] | Plant response rating, Cocklebur ([12]; Rate 62 g/ha, scale 0 to 100) | Plant response rating, Cocklebur [12, 15] | Plant response rating, Cocklebur [12, 16]
20: Plant response rating, Bermudagrass [5, 16] | Plant response rating, Johnsongrass [9, 17] | Plant response rating, Soybean (soybean (Glycine max); [17])
100: Plant response rating, Lambsquarters [3, 17] | Plant response rating, Pigweed [8, 17]
60: Plant response rating, Lambsquarters ([3]; Rate 62 g/ha, scale 0 to 100) | Plant response rating, Pigweed ([8]; Rate 62 g/ha, scale 0 to 100) | Plant response rating, Crabgrass [10, 17]
80: Plant response rating, Lambsquarters [3, 15] | Plant response rating, Lambsquarters [3, 16] | Plant response rating, Chickweed [13, 17]
50: Plant response rating, Kochia (kochia (Kochia scoparia); Rate 62 g/ha, scale 0 to 100) | Plant response rating, Cocklebur [12, 17]
